Calls of active or inactive are those of the source. The calls are words filed in the database; no cut-off is given here.
Key:
HCT-116 = experiment: Antiproliferative activity against human HCT-116 cells expressing wildtype ATM incubated for 72 hrs by CCK8 assay; format: functional, cell-based; conditions: HCT-116, 72 h
LoVo [1] = experiment: Antiproliferative activity against ATM deficient human LoVo cells incubated for 72 hrs by CCK8 assay; format: functional, cell-based
[2] = target: Serine/threonine-protein kinase ATR (Homo sapiens, UniProt Q13535); experiment: Inhibition of ATR (unknown origin)
[3] = Selectivity ratio for inhibition of ATM (unknown origin) to inhibition of ATR (unknown origin)
[4] = Selectivity ratio for inhibition of PI3K (unknown origin) to inhibition of ATR (unknown origin)
[5] = target: Protein cereblon/Serine/threonine-protein kinase ATR (Homo sapiens, UniProt Q13535+Q96SW2); experiment: PROTAC activity at CRBN/ATR in human LoVo cells assessed as induction of ATR degradation; format: cell-based
LoVo [6] = experiment: Induction of DNA damage in human LoVo cells assessed as increase in gammaH2AX expression at 1 uM incubated for 72 hrs by DAPI staining based immunofluorescence analysis; format: functional, cell-based
LoVo [7] = experiment: Induction of apoptosis in human LoVo cells assessed as apoptotic rate at 1 uM incubated for 48 hrs by Annexin V-FITC/PI staining based flow cytometric analysis (reference value: 5.32 %); format: functional
LoVo [8] = experiment: Cell cycle arrest in human LoVo cells assessed as accumulation of cells at G0/G1 phase at 1 uM incubated for 72 hrs by PI staining based flow cytometric analysis (reference value: 52.3 %); format: functional
LoVo [9] = experiment: Cell cycle arrest in human LoVo cells assessed as accumulation of cells at S phase at 1 uM incubated for 72 hrs by PI staining based flow cytometric analysis (reference value: 25.5 %); format: functional
LoVo [10] = experiment: Cell cycle arrest in human LoVo cells assessed as accumulation of cells at G2/M phase at 1 uM incubated for 72 hrs by PI staining based flow cytometric analysis (reference value: 22.2 %); format: functional
LoVo [11] = experiment: Synergistic antitumor activity against human LoVo cells xenografted in BALB/c nude mouse assessed as tumor growth inhibition at 12.5 mg/kg, po administered once daily for 15 days in presence of cisplatin relative to control; format: functional; conditions: 360 h, time 15 day, read-out: TGI

Serine/threonine-protein kinase ATR, sequence (Q13535 whole entry): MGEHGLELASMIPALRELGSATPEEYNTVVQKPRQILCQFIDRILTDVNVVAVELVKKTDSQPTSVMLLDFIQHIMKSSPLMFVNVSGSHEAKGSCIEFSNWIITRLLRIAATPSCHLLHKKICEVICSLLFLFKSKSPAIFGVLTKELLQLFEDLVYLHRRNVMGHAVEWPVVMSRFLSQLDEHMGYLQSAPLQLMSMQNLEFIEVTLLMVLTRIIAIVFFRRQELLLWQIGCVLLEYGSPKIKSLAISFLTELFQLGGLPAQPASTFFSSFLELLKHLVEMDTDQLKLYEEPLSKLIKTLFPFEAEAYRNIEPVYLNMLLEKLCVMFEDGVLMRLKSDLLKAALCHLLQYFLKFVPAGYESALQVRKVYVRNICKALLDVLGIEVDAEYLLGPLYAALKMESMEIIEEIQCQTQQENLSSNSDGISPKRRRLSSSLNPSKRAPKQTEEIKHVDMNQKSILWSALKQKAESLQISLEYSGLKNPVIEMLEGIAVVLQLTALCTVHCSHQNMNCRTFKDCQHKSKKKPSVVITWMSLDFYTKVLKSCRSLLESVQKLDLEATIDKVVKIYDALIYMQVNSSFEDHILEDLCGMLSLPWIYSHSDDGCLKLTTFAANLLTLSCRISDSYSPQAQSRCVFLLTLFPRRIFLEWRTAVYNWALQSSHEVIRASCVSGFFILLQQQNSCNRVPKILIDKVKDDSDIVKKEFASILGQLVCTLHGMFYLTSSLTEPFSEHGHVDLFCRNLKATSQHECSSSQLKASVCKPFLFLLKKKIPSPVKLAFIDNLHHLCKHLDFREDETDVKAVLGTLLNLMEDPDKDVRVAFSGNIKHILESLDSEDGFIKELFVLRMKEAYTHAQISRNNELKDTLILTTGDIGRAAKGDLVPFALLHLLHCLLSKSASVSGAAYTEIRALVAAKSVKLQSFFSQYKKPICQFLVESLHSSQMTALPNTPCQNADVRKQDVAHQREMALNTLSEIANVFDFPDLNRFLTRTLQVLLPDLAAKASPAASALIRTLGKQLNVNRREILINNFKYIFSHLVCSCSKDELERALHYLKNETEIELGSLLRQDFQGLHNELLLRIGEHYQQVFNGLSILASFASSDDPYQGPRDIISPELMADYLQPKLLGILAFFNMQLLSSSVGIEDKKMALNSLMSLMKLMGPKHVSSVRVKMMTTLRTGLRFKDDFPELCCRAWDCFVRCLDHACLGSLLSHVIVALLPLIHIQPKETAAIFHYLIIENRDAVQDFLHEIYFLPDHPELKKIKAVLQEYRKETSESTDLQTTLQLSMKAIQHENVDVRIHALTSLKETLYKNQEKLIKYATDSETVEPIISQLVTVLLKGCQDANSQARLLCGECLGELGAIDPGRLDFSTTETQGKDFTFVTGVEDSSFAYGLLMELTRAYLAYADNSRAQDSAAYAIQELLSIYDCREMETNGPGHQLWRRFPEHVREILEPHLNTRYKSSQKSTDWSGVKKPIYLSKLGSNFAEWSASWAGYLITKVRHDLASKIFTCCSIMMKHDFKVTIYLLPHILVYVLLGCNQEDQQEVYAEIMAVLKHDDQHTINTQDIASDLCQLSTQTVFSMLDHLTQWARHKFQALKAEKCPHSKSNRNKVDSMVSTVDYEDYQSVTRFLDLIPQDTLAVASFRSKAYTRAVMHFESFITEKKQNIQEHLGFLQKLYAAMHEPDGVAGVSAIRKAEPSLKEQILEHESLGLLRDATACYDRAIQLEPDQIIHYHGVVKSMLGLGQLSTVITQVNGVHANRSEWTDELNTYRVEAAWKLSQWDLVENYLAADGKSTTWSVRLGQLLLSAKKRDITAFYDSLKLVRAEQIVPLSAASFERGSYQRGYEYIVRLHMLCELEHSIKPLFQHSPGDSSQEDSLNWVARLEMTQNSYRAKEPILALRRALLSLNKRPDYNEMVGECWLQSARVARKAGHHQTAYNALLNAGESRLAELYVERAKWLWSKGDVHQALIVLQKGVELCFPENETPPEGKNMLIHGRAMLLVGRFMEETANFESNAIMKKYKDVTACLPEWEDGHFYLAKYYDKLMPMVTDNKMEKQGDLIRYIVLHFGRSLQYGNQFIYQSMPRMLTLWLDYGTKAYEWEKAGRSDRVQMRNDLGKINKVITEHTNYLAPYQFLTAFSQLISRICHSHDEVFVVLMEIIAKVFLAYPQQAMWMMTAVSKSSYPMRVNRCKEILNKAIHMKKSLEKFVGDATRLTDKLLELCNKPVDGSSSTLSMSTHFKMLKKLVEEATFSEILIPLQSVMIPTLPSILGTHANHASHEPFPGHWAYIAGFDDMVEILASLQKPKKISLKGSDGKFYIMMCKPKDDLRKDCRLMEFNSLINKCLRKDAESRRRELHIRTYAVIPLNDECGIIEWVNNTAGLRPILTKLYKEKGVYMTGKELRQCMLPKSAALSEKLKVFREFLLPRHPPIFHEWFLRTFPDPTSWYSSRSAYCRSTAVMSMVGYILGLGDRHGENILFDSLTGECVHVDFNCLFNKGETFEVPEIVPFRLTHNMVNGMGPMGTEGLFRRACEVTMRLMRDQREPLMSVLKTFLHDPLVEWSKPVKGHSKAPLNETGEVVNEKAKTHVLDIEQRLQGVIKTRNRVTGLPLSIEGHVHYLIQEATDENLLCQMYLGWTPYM
Protein cereblon/Serine/threonine-protein kinase ATR, sequence (Q13535 whole entry, looked up): as the sequence (Q13535 whole entry) above
Protein cereblon/Serine/threonine-protein kinase ATR, sequence (Q96SW2 whole entry, looked up): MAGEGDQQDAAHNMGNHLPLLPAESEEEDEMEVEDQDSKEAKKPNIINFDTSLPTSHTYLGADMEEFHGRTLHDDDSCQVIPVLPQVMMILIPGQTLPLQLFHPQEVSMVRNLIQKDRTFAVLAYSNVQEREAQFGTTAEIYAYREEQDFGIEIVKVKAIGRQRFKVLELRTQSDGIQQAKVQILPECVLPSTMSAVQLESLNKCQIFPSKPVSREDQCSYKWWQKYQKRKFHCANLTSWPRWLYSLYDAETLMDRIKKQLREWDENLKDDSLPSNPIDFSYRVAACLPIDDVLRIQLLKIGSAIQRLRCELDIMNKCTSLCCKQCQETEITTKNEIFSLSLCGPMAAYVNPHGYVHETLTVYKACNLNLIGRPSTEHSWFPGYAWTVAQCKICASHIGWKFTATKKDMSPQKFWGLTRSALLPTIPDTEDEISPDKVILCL

Structure (SMILES)	IC50 (HCT-116)	IC50 (LoVo [1])	also measured
Nc1cccc2c1C(=O)N(C1CCC(=O)NC1=O)C2=O (stereo not given) [POMALIDOMIDE]	> 50 µM	> 50 µM	
Cc1ncsc1-c1ccc(CNC(=O)[C@@H]2C[C@@H](O)CN2C(=O)[C@@H](N)C(C)(C)C)cc1	> 50 µM	> 50 µM	
C[C@@H]1COCCN1c1cc(C2([S@@](C)(=O)=NC(=O)CCc3cn(CCCCCC(=O)Nc4cccc5c4C(=O)N(C4CCC(=O)NC4=O)C5=O)nn3)CC2)nc(-c2ccnc3[nH]ccc23)n1 (stereo not given in full)	> 50 µM	23.3 µM	
Nc1nn2cc(F)cnc2c1C(=O)Nc1cncc(F)c1N1CCC(C(=O)N2CCN(C3COC3)CC2)CC1 [M4344]			IC50 [2]: 0.00015 µM; Selectivity ratio [3]: > 50; Selectivity ratio [4]: > 50
C[C@@H]1COCCN1c1cc(C2([S@@](C)(=O)=NC(=O)CCc3cn(CCCCC(=O)Nc4cccc5c4C(=O)N(C4CCC(=O)NC4=O)C5=O)nn3)CC2)nc(-c2ccnc3[nH]ccc23)n1 (stereo not given in full)	> 50 µM	28.4 µM	
C[C@@H]1COCCN1c1cc(C2([S@@](C)(=O)=NC(=O)CCc3cn(CCCCCCC(=O)Nc4cccc5c4C(=O)N(C4CCC(=O)NC4=O)C5=O)nn3)CC2)nc(-c2ccnc3[nH]ccc23)n1 (stereo not given in full)	> 50 µM	20 µM	
Cc1ncsc1-c1ccc(CNC(=O)[C@@H]2C[C@@H](O)CN2C(=O)[C@@H](NC(=O)CCCCCCCn2cc(CCC(=O)N=[S@](C)(=O)C3(c4cc(N5CCOC[C@H]5C)nc(-c5ccnc6[nH]ccc56)n4)CC3)nn2)C(C)(C)C)cc1	> 50 µM	> 50 µM	
C[C@@H]1COCCN1c1cc(C2([S@@](C)(=O)=NC(=O)CCc3cn(CCOCCOCCOCC(=O)Nc4cccc5c4C(=O)N(C4CCC(=O)NC4=O)C5=O)nn3)CC2)nc(-c2ccnc3[nH]ccc23)n1 (stereo not given in full)	> 50 µM	> 50 µM	
CCN1C(=O)CCC(N2C(=O)c3cccc(NC(=O)CCCCCCCCCn4cc(CCC(=O)N=[S@](C)(=O)C5(c6cc(N7CCOC[C@H]7C)nc(-c7ccnc8[nH]ccc78)n6)CC5)nn4)c3C2=O)C1=O (stereo not given in full)	> 50 µM	> 50 µM	Activity [5]: inactive
C[C@@H]1COCCN1c1cc(C2([S@@](C)(=O)=NC(=O)CCc3cn(CCCCCCCCCC(=O)Nc4cccc5c4C(=O)N(C4CCC(=O)NC4=O)C5=O)nn3)CC2)nc(-c2ccnc3[nH]ccc23)n1 (stereo not given in full)	> 50 µM	21.2 µM	
C[C@@H]1COCCN1c1cc(C2([S@@](C)(=O)=NC(=O)CCc3cn(CCOCCOCC(=O)Nc4cccc5c4C(=O)N(C4CCC(=O)NC4=O)C5=O)nn3)CC2)nc(-c2ccnc3[nH]ccc23)n1 (stereo not given in full)	> 50 µM	26.7 µM	
Cc1ncsc1-c1ccc(CNC(=O)[C@@H]2C[C@@H](O)CN2C(=O)[C@@H](NC(=O)CCCCCCCCCCn2cc(CCC(=O)N=[S@](C)(=O)C3(c4cc(N5CCOC[C@H]5C)nc(-c5ccnc6[nH]ccc56)n4)CC3)nn2)C(C)(C)C)cc1	> 50 µM	> 50 µM	
C[C@@H]1COCCN1c1cc(C2([S@@](C)(=O)=NC(=O)CCc3cn(CCCCCCCCCCC(=O)Nc4cccc5c4C(=O)N(C4CCC(=O)NC4=O)C5=O)nn3)CC2)nc(-c2ccnc3[nH]ccc23)n1 (stereo not given in full)	> 50 µM	16.4 µM	
C[C@@H]1COCCN1c1cc(C2([S@@](C)(=O)=NC(=O)CCc3cn(CCCCCCCCC(=O)Nc4cccc5c4C(=O)N(C4CCC(=O)NC4=O)C5=O)nn3)CC2)nc(-c2ccnc3[nH]ccc23)n1 (stereo not given in full)	> 50 µM	32.4 µM	
C[C@@H]1COCCN1c1cc(C2([S@](C)(=N)=O)CC2)nc(-c2cc[nH]c3nccc2-3)n1 [CERALASERTIB]	3.62 µM	0.83 µM	Activity (LoVo [6]): Active; Activity (LoVo [7]): 42%; Activity (LoVo [8]): 71.8%; Activity (LoVo [9]): 16.7%; Activity (LoVo [10]): 11.5%; inhibition in vivo at 12.5 mg/kg (LoVo [11]): 52.7%
Cc1ncsc1-c1ccc(CNC(=O)[C@@H]2C[C@@H](O)CN2C(=O)[C@@H](NC(=O)CCCCn2cc(CCC(=O)N=[S@](C)(=O)C3(c4cc(N5CCOC[C@H]5C)nc(-c5ccnc6[nH]ccc56)n4)CC3)nn2)C(C)(C)C)cc1	> 50 µM	> 50 µM	
